Test results: ChEMBL document CHEMBL5346903, “Discovery of novel and bioavailable histone deacetylases and cyclin-dependent kinases dual inhibitor to impair the stemness of leukemia cells” (Eur J Med Chem, 2023)

Tests used:
U-937 = assay: Antiproliferative activity against human U-937 cells incubated for 72 hrs by CCK8 assay; assay type: functional, cell-based; details: U-937, 72 h
Kasumi 1 [1] = assay: Synergistic antiproliferative activity against human Kasumi 1 cells assessed as combination index incubated for 72 hrs in presence of Chidamide by CCK-8 assay; assay type: functional
[2] = target: T1, Cyclin-dependent kinase 5/CDK5 activator 1 (Homo sapiens) (UniProt Q00535+Q15078); assay: Inhibition of CDK5/p35NCK (unknown origin) at 100 nM preincubated for 20 mins followed by [gamma-33P]ATP addition measured after 120 mins in presence of ATP by Hot-SpotSM kinase assay relative to control; assay type: protein-complex assay; details: time 140.0 min
Kasumi 1 [3] = assay: Antiproliferative activity against human Kasumi 1 cells incubated for 72 hrs by CCK8 assay; assay type: functional, cell-based; details: Kasumi 1, 72 h
[4] = Antiproliferative activity against human SKNO-1 cells incubated for 72 hrs by CCK8 assay; assay type: functional, cell-based; details: SKNO-1, 72 h
[5] = target: CDK6/cyclin D1 (Homo sapiens) (UniProt P24385+Q00534); assay: Inhibition of CDK6/cyclinD1 (unknown origin) at 100 nM preincubated for 20 mins followed by [gamma-33P]ATP addition measured after 120 mins in presence of ATP by Hot-SpotSM kinase assay relative to control; assay type: protein-complex assay; details: time 140.0 min
[6] = target: Cyclin-C/Cyclin-dependent kinase 19 (Homo sapiens) (UniProt Q9BWU1+P24863); assay: Inhibition of CDK19/cyclinC (unknown origin) at 100 nM preincubated for 20 mins followed by [gamma-33P]ATP addition measured after 120 mins in presence of ATP by Hot-SpotSM kinase assay relative to control; assay type: protein-complex assay; details: time 140.0 min
[7] = target: CDK4/Cyclin D3 (Homo sapiens) (UniProt P11802+P30281); assay: Inhibition of CDK4/cyclinD3 (unknown origin) at 100 nM preincubated for 20 mins followed by [gamma-33P]ATP addition measured after 120 mins in presence of ATP by Hot-SpotSM kinase assay relative to control; assay type: protein-complex assay; details: time 140.0 min
[8] = target: CDK3/Cyclin E (Homo sapiens) (UniProt P24864+Q00526); assay: Inhibition of CDK3/cyclinE1 (unknown origin) at 100 nM preincubated for 20 mins followed by [gamma-33P]ATP addition measured after 120 mins in presence of ATP by Hot-SpotSM kinase assay relative to control; assay type: protein-complex assay; details: time 140.0 min
[9] = target: Cyclin-dependent kinase 13/Cyclin-K (Homo sapiens) (UniProt Q14004+O75909); assay: Inhibition of CDK13/cyclinK (unknown origin) at 100 nM preincubated for 20 mins followed by [gamma-33P]ATP addition measured after 120 mins in presence of ATP by Hot-SpotSM kinase assay relative to control; assay type: protein-complex assay; details: time 140.0 min
[10] = target: T1, Cyclin-dependent kinase 5/CDK5 activator 1 (Homo sapiens); assay: Inhibition of CDK5/p25NCK (unknown origin) at 100 nM preincubated for 20 mins followed by [gamma-33P]ATP addition measured after 120 mins in presence of ATP by Hot-SpotSM kinase assay relative to control; assay type: protein-complex assay; details: time 140.0 min
[11] = target: CDK12/Cyclin K (Homo sapiens) (UniProt O75909+Q9NYV4); assay: Inhibition of CDK12/cyclinK (unknown origin) at 100 nM preincubated for 20 mins followed by [gamma-33P]ATP addition measured after 120 mins in presence of ATP by Hot-SpotSM kinase assay relative to control; assay type: protein-complex assay; details: time 140.0 min
[12] = target: Cyclin-dependent kinase 1/cyclin B1 (Homo sapiens) (UniProt P06493+P14635); assay: Inhibition of CDK1/cyclinB1 (unknown origin) at 100 nM preincubated for 20 mins followed by [gamma-33P]ATP addition measured after 120 mins in presence of ATP by Hot-SpotSM kinase assay relative to control; assay type: protein-complex assay; details: time 140.0 min
[13] = target: CDK1/Cyclin E (Homo sapiens) (UniProt P06493+P24864); assay: Inhibition of CDK1/cyclinE1 (unknown origin) at 100 nM preincubated for 20 mins followed by [gamma-33P]ATP addition measured after 120 mins in presence of ATP by Hot-SpotSM kinase assay relative to control; assay type: protein-complex assay; details: time 140.0 min
[14] = target: Cyclin-dependent kinase 4/cyclin D1 (Homo sapiens) (UniProt P11802+P24385); assay: Inhibition of CDK4/cyclinD1 (unknown origin) at 100 nM preincubated for 20 mins followed by [gamma-33P]ATP addition measured after 120 mins in presence of ATP by Hot-SpotSM kinase assay relative to control; assay type: protein-complex assay; details: time 140.0 min
[15] = target: CDK6/cyclin D3 (Homo sapiens) (UniProt P30281+Q00534); assay: Inhibition of CDK6/cyclinD3 (unknown origin) at 100 nM preincubated for 20 mins followed by [gamma-33P]ATP addition measured after 120 mins in presence of ATP by Hot-SpotSM kinase assay relative to control; assay type: protein-complex assay; details: time 140.0 min
[16] = target: CDK1/Cyclin A (Homo sapiens) (UniProt P06493+P20248); assay: Inhibition of CDK1/cyclinA2 (unknown origin) at 100 nM preincubated for 20 mins followed by [gamma-33P]ATP addition measured after 120 mins in presence of ATP by Hot-SpotSM kinase assay relative to control; assay type: protein-complex assay; details: time 140.0 min
HL-60 = assay: Antiproliferative activity against human HL-60 cells incubated for 72 hrs by CCK8 assay; assay type: functional, cell-based; details: HL-60, 72 h

T1 sequence (Q00535 whole entry): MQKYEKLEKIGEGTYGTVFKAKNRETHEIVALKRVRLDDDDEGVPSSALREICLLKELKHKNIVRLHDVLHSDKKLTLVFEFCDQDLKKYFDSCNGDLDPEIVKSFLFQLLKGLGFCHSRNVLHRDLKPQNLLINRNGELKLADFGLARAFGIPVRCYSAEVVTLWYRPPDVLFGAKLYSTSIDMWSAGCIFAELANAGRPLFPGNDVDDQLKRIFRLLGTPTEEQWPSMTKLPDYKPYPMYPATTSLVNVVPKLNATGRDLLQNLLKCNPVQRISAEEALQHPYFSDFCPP
T1 sequence (Q15078 99-307 partner limits assumed): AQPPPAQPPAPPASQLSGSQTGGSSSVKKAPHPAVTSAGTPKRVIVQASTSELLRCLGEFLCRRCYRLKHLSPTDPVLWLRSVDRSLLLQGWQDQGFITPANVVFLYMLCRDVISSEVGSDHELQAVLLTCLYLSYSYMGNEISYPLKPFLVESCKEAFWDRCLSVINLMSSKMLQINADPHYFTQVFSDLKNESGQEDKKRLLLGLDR
Cyclin-dependent kinase 1/cyclin B1 (Homo sapiens), sequence (P06493 whole entry, looked up): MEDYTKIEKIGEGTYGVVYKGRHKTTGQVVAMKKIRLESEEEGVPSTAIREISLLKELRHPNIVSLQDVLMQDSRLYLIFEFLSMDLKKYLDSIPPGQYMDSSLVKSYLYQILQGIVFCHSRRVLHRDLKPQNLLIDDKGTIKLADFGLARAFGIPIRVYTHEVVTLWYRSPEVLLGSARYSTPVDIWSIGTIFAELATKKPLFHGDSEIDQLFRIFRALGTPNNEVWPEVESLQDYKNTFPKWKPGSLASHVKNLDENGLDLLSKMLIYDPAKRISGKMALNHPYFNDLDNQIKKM
Cyclin-dependent kinase 1/cyclin B1 (Homo sapiens), sequence (P14635 whole entry, looked up): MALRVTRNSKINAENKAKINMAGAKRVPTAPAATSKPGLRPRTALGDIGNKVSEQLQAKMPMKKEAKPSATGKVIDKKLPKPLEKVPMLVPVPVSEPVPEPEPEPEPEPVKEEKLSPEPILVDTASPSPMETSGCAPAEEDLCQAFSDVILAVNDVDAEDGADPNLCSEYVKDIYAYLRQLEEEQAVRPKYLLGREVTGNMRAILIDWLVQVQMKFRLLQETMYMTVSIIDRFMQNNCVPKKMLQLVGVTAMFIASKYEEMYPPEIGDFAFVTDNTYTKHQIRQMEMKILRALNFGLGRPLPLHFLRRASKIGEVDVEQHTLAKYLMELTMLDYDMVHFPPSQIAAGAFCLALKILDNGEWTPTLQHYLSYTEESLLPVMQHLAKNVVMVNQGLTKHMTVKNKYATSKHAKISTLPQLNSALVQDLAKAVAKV
CDK1/Cyclin E (Homo sapiens), sequence (P06493 whole entry, looked up): as the sequence (P06493 whole entry, looked up) above
CDK1/Cyclin E (Homo sapiens), sequence (P24864 whole entry, looked up): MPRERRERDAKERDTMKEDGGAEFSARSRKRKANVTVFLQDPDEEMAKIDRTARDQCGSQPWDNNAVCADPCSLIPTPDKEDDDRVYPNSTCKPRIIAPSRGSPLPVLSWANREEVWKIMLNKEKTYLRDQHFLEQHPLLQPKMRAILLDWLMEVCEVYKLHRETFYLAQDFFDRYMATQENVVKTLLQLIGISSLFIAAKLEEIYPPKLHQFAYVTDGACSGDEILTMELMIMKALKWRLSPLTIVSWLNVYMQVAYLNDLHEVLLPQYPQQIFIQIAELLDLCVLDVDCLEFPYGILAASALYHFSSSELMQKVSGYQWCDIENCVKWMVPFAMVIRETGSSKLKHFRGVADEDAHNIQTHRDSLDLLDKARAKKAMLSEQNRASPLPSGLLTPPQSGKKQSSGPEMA
CDK1/Cyclin A (Homo sapiens), sequence (P06493 whole entry, looked up): as the sequence (P06493 whole entry, looked up) above
CDK1/Cyclin A (Homo sapiens), sequence (P20248 whole entry, looked up): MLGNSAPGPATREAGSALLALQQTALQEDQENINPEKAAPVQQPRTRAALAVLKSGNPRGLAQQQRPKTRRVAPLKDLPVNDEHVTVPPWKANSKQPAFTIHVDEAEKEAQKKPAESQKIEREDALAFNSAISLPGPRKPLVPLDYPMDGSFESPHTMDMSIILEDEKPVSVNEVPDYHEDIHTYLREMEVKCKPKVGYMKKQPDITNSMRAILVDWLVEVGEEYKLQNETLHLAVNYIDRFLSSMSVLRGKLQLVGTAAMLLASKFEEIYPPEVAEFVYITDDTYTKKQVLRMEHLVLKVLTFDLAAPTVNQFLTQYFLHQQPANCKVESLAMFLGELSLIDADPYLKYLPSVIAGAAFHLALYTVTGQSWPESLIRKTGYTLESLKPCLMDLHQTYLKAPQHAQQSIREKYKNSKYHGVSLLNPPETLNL
CDK3/Cyclin E (Homo sapiens), sequence (P24864 whole entry, looked up): as the sequence (P24864 whole entry, looked up) above
CDK3/Cyclin E (Homo sapiens), sequence (Q00526 whole entry, looked up): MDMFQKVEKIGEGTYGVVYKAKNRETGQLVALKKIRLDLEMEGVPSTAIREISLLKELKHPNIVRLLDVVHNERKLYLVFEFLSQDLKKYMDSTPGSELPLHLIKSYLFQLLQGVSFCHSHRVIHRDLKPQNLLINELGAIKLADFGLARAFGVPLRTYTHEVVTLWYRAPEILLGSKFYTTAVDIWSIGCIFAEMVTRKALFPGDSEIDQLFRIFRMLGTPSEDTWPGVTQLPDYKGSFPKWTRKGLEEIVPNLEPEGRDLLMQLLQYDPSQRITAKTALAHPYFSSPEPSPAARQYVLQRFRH

SMILES: O=C(NC1CCNCC1)c1n[nH]cc1NC(=O)c1c(Cl)cccc1Cl [AT-7519]
- IC50 (U-937): 1150 nM
- CI (Kasumi 1 [1]): <1
- inhibition [2]: 62.5%
- IC50 (Kasumi 1 [3]): 1480 nM
- IC50 [4]: 1220 nM
- inhibition [5]: 56.8%
- inhibition [6]: 6.49%
- inhibition [7]: 74.6%
- inhibition [8]: 26.5%
- inhibition [9]: 87%
- inhibition [10]: 76.9%
- inhibition [11]: 85%
- inhibition [12]: 39.3%
- inhibition [13]: 31.4%
- inhibition [14]: 68.7%
- inhibition [15]: 33.2%
- inhibition [16]: 24%
- IC50 (HL-60): 2330 nM
